Tests used:
Assay in all cases: pIC50, kinobeads binding competition
[1] = target: T1, EIF2AK3 (UniProt Q9NZJ5); conditions: cell material: Lysate mix
T1 sequence (whole entry): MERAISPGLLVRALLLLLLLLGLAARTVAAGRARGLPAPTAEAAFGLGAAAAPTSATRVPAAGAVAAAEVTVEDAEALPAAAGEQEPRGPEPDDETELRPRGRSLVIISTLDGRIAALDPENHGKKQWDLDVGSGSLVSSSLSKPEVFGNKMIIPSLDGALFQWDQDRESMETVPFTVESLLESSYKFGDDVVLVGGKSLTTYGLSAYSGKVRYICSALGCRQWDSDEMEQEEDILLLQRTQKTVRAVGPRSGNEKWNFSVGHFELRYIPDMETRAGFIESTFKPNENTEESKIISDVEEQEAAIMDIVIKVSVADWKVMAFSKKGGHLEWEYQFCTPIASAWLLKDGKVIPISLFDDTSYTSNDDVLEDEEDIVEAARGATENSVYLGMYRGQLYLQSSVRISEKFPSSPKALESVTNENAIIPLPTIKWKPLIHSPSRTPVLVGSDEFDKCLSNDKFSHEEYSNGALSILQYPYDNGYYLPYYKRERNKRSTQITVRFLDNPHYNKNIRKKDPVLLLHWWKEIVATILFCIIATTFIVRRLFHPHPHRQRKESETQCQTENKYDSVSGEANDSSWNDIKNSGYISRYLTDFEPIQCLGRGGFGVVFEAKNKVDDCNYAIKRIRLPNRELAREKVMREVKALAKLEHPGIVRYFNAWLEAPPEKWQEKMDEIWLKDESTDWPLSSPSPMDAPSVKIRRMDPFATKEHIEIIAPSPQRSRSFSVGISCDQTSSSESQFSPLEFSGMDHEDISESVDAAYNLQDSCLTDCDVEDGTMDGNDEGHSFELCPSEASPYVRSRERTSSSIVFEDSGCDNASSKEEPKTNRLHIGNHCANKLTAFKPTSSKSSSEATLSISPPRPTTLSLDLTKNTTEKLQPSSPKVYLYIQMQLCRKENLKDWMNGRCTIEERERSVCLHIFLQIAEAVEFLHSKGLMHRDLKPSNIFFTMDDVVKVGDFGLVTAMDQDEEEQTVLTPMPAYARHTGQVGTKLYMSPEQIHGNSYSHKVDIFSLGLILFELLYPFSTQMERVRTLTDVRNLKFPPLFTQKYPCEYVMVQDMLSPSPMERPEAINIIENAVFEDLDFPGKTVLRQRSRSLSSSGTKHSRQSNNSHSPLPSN
In short: (§1)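 Jurkat cells were exposed alive to nine compound concentrations (top 30 μM, 1:4 steps) or vehicle for 60 min at 37 °C and then lysed. In a second format, nine concentrations (top 30 μM, 1:5 steps) were incubated for 60 min at 4 °C with Jurkat lysate or with a 1:1:1:1 lysate mix of HEK293, K-562, HepG2 and placenta. Proteins captured on Kinobeads were digested and quantified by TMT10 LC-MS/MS. pIC50 values were derived from logistic dose-response fits (R drc package) of fold changes relative to vehicle, in biological duplicates.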

[2] = target: T2, PRKD3 (UniProt O94806)
T2 sequence (whole entry): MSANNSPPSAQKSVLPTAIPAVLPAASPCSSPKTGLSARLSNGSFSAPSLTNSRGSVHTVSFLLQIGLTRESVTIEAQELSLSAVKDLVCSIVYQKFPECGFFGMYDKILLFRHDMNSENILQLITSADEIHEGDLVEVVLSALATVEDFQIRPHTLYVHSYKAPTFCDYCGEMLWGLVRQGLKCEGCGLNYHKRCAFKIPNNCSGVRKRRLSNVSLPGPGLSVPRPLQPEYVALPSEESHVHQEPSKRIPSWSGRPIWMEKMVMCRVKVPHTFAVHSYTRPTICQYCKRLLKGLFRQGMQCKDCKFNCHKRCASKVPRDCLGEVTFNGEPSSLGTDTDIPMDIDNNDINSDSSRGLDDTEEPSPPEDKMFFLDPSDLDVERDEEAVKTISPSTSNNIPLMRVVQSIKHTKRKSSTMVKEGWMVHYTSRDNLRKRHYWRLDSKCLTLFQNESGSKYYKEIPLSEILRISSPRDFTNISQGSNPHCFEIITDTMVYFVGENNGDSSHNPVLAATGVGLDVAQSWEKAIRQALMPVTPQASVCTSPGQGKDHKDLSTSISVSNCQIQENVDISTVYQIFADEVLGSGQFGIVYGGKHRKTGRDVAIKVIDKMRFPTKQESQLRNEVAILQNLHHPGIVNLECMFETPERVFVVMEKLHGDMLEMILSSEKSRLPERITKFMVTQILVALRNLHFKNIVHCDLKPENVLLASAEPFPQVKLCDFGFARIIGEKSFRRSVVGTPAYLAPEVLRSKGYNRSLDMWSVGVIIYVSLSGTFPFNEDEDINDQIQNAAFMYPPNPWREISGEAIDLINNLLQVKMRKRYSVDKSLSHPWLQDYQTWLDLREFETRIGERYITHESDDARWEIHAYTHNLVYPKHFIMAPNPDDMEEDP
In short: as §1

[3] = target: UniProt O75716
In short: as §1

[4] = target: UniProt Q00536
In short: as §1

Chain of UniProt Q00536 (Q00536 whole entry): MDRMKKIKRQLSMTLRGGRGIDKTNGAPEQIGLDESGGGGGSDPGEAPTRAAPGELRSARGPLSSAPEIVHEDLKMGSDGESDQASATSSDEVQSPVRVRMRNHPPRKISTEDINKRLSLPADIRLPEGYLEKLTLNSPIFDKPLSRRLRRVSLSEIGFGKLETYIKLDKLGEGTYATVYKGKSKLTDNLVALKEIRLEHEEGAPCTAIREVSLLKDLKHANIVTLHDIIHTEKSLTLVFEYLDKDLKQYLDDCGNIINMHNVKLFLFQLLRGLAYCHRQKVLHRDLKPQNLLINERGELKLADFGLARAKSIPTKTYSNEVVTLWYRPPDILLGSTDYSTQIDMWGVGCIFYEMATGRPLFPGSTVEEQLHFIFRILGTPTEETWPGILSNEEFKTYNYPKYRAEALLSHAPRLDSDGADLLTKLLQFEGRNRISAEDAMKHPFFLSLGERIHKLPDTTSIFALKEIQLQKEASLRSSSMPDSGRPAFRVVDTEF
Chain of UniProt O75716 (O75716 whole entry): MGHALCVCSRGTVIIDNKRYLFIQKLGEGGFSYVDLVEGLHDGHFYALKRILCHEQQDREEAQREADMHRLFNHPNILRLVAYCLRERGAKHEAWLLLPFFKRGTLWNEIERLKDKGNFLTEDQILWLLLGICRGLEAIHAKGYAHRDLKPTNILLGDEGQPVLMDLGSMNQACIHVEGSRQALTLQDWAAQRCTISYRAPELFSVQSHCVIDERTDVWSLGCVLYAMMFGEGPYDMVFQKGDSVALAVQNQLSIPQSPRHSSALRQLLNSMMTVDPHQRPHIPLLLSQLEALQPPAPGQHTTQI

| SMILES | pIC50 [1] | pIC50 ([2]; cell material: Lysate mix) | pIC50 ([3]; cell material: Lysate mix) | pIC50 ([4]; cell material: Lysate mix) | pIC50 ([2]; cell material: Jurkat cells) | pIC50 ([2]; cell material: Jurkat lysate) | pIC50 ([3]; cell material: Jurkat cells) | pIC50 ([3]; cell material: Jurkat lysate) | pIC50 ([4]; cell material: Jurkat cells) | pIC50 ([4]; cell material: Jurkat lysate) |
| --- | --- | --- | --- | --- | --- | --- | --- | --- | --- | --- |
| CCNC(=O)c1cc(Nc2cc(C)[nH]n2)nc(N2CCN(Cc3ccc(S(=O)(=O)F)cc3)CC2)n1 | < 4.52 | < 4.52 | 4.87 | 4.76 |  |  |  |  |  |  |
| CCNC(=O)c1cc(Nc2cc(C3CC3)[nH]n2)nc(N2CCN(Cc3ccc(S(=O)(=O)F)cc3)CC2)n1 | < 4.52 | < 4.52 | 5.46 | 5.76 |  |  |  |  |  |  |
| Cc1cc(Nc2cc(C(=O)NCCNC(=O)OC3CC/C=C/CCC3)nc(N3CCN(Cc4ccc(S(=O)(=O)F)cc4)CC3)n2)n[nH]1 (stereo not given) | < 4.52 | < 4.52 | < 4.52 | < 4.52 |  |  |  |  |  |  |
| C#CCNC(=O)c1cc(Nc2cc(C3CC3)[nH]n2)nc(N2CCN(Cc3ccc(S(=O)(=O)F)cc3)CC2)n1 | < 4.52 | < 4.52 | 5.32 | 5.89 | 5.32 | < 4.52 | 5.82 | 4.92 | 6.35 | 5.01 |
| C#CCNC(=O)c1cc(Nc2cc(C)[nH]n2)nc(N2CCN(Cc3ccc(S(=O)(=O)F)cc3)CC2)n1 | < 4.52 | < 4.52 | 4.89 | < 4.52 |  |  |  |  |  |  |
| O=C(NCCNC(=O)c1cc(Nc2cc(C3CC3)[nH]n2)nc(N2CCN(Cc3ccc(S(=O)(=O)F)cc3)CC2)n1)OC1CC/C=C/CCC1 (stereo not given) | < 4.52 | < 4.52 | < 4.52 | < 4.52 |  | < 4.52 | 4.81 | < 4.52 | 5.85 | < 4.52 |

— the supplement of paper PMC12076712
